Test results published in patent US20200316087A1, “NOVEL COMBINATION THERAPY FOR ANXIETY DISORDERS, EPILEPSY, AND PAIN” (priority 2017, published 2020).

Tested on: punished licking (anxiety)
Assay: Vogel conflict test
Type: in vivo
Settings: rats
Procedure: Experiments are conducted as described in the protocol of Alt et al. (Neuropharmacology 2007, 52, 1482-1487). Experimentally-naive adult male Sprague-Dawley rats (Harlan Industries, Indianapolis, Ind.), weighing between 200 and 300 g, are used as subjects. The rats are housed in Plexiglas cages (4 per cage) and given free access to Lab Diet #5001 for rodents (PMI Nutrition International Inc., St. Louis, Mo.). Water is withheld for 20-24 hours prior to the first training session. A 12-hr light/dark cycle is maintained, and all experimental sessions are conducted during the light phase of the cycle at about the same time each day.
The experiments are conducted using operant behavior test chambers ENV-007 (Med Associates Inc., Georgia, Vt., USA), 30.5×24.1×29.2 cm. […] All events are controlled and licking data is recorded by a Compaq computer running MED-PC Version IV (Med Associates Inc., Georgia, Vt., USA).
Rats are put into the chamber on day 1 and 2 with white noise and the houselight illuminated, and allowed to drink for a total of six minutes after the first lick is made. The six minutes is broken into two components, the first three minutes is recorded as the unpunished component and the second three minutes are recorded as the punished component. […]
The mean number of licks for both the unpunished and punished components are analyzed. […]

C#Cc1ccc2c(c1)C(c1ccccc1)=NCc1c(-c3cnco3)ncn1-2 [KRM-II-82, 5-(8-ethynyl-6-phenyl-4H-benzo[f]imidazo[1,5-a][1,4]diazepin-3-yl)oxazole]
anxiolytic-like efficacy in Vogel conflict test: did not produce anxiolytic-like efficacy
